US20130045947A1, “PLA2ACTIVITY AS A MARKER FOR OVARIAN AND OTHER GYNECOLOGIC CANCERS” (INDIANA UNIVERSITY RESEARCH AND TECHNOLOGY CORPORATION, priority 2010, published 2013)
Entries after “also recorded” stand apart in the source; their conditions may differ.

Assays:
PLA2 [1] = type: biochemical, human
PLA2 [2] = type: biochemical, human; settings: for sensitivity of exosome-associated PLA2 activity to inhibitor: exosomes isolated from human ascites (ExoQuick); for inhibition of ascitic PLA2 activity: cell-free human EOC ascites
tumors = assay: Tumors from control and BEL-treated mice; type: in vivo, mouse
From the text: Referring now to FIGS. 3A, C and D, PLA2 activities measured from several mouse models for GYN diseases are presented.

PLA2 [3] = type: biochemical, mouse
SKOV3 cells [4] = assay: Cell migration assay, SKOV3 cells; type: cell-based, human; settings: for effect on migration of SKOV3 cells induced by S1 fractions: inhibitor in lower chamber, two different S1 fractions, FIG. 10A; for stimulation of migration: SKOV3 cells, FIG. 10D
Description: In order to determine whether PLA2 and ATX were functionally involved in ascites-induced migration of EOC cells, the inhibitors MAFP, BEL, and HA130 were added to the lower chambers during the assay. […] The effect of each inhibitor was almost identical whether using S1, S3, or S4 fractions (FIG. 10 and data not shown).

EOC metastasis = settings: with low and non-toxic doses of paclitaxel; shown previously; cited from earlier work
EOC cells [5] = assay: Ascites-stimulated proliferation, migration and invasion of EOC cells; settings: S1 and S3 specimens
[6] = test system: RAW 264.7 mouse macrophages; assay: PLA2 activity in conditioned medium (CM) of macrophages; type: cell-based; settings: for effect on PLA2 activity detected in CM: exosome secretion inhibitors, DMA 5 and 12.5 nM, MBC 1 and 2 mM; for order of effectiveness in reducing PLA2 activity of CM: ABC transporter inhibitors; for effect on PLA2 activity of CM: cells treated 4 hr, 17-hr CM, MK571 10-50 μM, CsA 2-50 μM, glyburide 0.1-2 mM, FIG. 12B
SKOV3 cells [7] = assay: MTT proliferation assay, ascites-stimulated SKOV3 cells; type: cell-based, human; settings: S1-stimulated; 10 μM Ki16425
SKOV3 cells [8] = assay: Migration of SKOV3 cells to RAW 264.7 macrophage CM; type: cell-based, human; settings: MK571 50 μM, glyburide 500 μM; FIG. 12C
Description: Referring now to FIG. 12C, CM from RAW 264.7 mouse macrophages was tested to determine if it would stimulate migration of SKOV3 cells. Migration of SKOV3 cells to 17-hr CM from untreated cells and cells treated with inhibitors (MK571, 50 μM, CsA, 10 μM, glyburide, 500 μM, and MAFP, 20 μM). ***, P<0.001 compared to CM. Data is mean and SD of three membranes; experiment repeated twice. An approximately 2-fold increase in migration with the CM compared to the medium control in the bottom well of the migration chamber was found. […] The addition of MAFP to the CM also abrogated migration.

sPLA2 = sPLA2 (Apis mellifera, UniProt P00630); type: biochemical, bee
SKOV3 cells [9] = assay: Cell invasion assay; settings: FIG. 10D
EOC cells [10] = settings: has been shown (earlier work); cited from earlier work

sPLA2, sequence (P00630 34-167 limits assumed): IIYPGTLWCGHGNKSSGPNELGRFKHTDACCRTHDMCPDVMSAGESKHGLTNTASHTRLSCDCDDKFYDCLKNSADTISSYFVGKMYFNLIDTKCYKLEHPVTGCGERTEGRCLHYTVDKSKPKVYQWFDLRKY

With `O=C1O/C(=C/Br)CCC1c1cccc2ccccc12` (centres unmarked) [BEL, bromoenol lactone] the “sensitivity of para-nuclear (cancer) PLA2 activities to inhibitor” value (PLA2 [1]; frozen human GYN cancer tissue sections, DBPC, FIG. 1D) was “sensitive”, the “sensitivity of exosome-associated PLA2 activity to inhibitor” value (PLA2 [2]) was “proved sensitive” and the “tumor size / tumorigenesis” value (tumors; BEL-treated vs control mice) was “reduces tumorigenesis; also recorded: significantly smaller”. For the same compound, the “PLA2 activity in tumors of treated mice” value (tumors; tumors from BEL-treated vs control mice, FIG. 3B) was “greatly reduced”, the “sensitivity of PLA2 activities in normal mouse tissues” value (PLA2 [3]; kidney, lung, liver) was “insensitivity” and the “effect on sPLA2-like activity of normal mouse kidney tissue” value (PLA2 [3]; mouse kidney, FIG. 3E) was “minimally affected”. For the same compound, the “effect on migration of SKOV3 cells induced by S1 fractions” value (SKOV3 cells [4]) was “dose-dependently reduced”, the “inhibition of EOC metastasis in combination” value (EOC metastasis) was “can inhibit EOC metastasis” and the “inhibition of ascites-stimulated proliferation, migration and invasion” value (EOC cells [5]) was 20-40%.
With `CN(C)c1nc(N)c(C(=O)N=C(N)N)nc1Cl.Cl` [DMA, 5,5-(N—N-Dimethyl)-amiloride hydrochloride] the “effect on PLA2 activity detected in CM” value [6] was “Neither inhibitor had any significant effect”.
In the case of `O[C@@H](CS)[C@@H](O)CS` [DTT], the “inhibition of ascitic PLA2 activity” value (PLA2 [2]) is reported as “did not inhibit”.
With `O=C1S/C(=C\c2ccc(OCc3cccc(B(O)O)c3)cc2)C(=O)N1Cc1ccc(F)cc1` [HA130] the “effect on migration of SKOV3 cells induced by S1 fractions” value (SKOV3 cells [4]) was “dose-dependently reduced” and the “inhibition of ascites-stimulated proliferation, migration and invasion” value (EOC cells [5]) was 10-45%.
For `Cc1noc(-c2ccc(CSCCC(=O)O)cc2)c1NC(=O)OC(C)c1ccccc1Cl` (centres unmarked) [Ki16425], the “proliferation of SKOV3 cells reduced by” value (SKOV3 cells [7]) was 12.4±7.44% and the “inhibition of migratory activity induced by S1, S3 and P3 fractions” value (SKOV3 cells [4]; SKOV3 cells pretreated with Ki16425 (10 μM), FIG. 10B) was greater than 70%.
In the case of `CN(C)C(=O)CCSC(SCCC(=O)O)c1cccc(/C=C/c2ccc3ccc(Cl)cc3n2)c1` (centres unmarked) [MK571], the “order of effectiveness in reducing PLA2 activity of CM” value [6] is reported as “MK571>glyburide>CsA”, the “effect on PLA2 activity of CM” value [6] is reported as “dose-responsively reduced” and the “migration of SKOV3 cells to CM from inhibitor-treated macrophages” value (SKOV3 cells [8]) is reported as “did not stimulate migration”.
In the case of `CCCCCCCCCCCCCCCCSC[C@H](COP(=O)(O)OCC[N+](C)(C)C)NC(=O)CCCCCCCCCCCCCCC` [TAPC, thioether amide-PC], the “sensitivity of tumor PLA2 activity to inhibitor” value (PLA2 [1]; frozen tumor sections, MAFP 40 μM, TAPC 250 μM, FIG. 7B) is reported as “but not to an inhibitor of sPLA2”, the “inhibition of ascitic PLA2 activity” value (PLA2 [2]) is reported as “did not inhibit” and the “sensitivity of exosome-associated PLA2 activity to inhibitor” value (PLA2 [2]) is reported as “proved sensitive”. The “blocking of sPLA2 activity of positive control” value (sPLA2) was “blocking sPLA2 activity”.
With `COc1ccc(Cl)cc1C(=O)NCCc1ccc(S(=O)(=O)NC(=O)NC2CCCCC2)cc1` [glyburide] the “order of effectiveness in reducing PLA2 activity of CM” value [6] was “MK571>glyburide>CsA”, the “effect on PLA2 activity of CM” value [6] was “dose-responsively reduced” and the “migration of SKOV3 cells to CM from inhibitor-treated macrophages” value (SKOV3 cells [8]) was “did not stimulate migration”.
In the case of `CCCCCCCCCCCCCCCCOC[C@@H](O)COP(=O)([O-])OCC[N+](C)(C)C` [lyso-PAF, lyso-platelet activating factor], the stimulation of migration (SKOV3 cells [4]) is reported as “did not stimulate” and the stimulation of invasion (SKOV3 cells [9]) is reported as “did not stimulate”.
In the case of `CCCCCCCC/C=C\CCCCCCCC(=O)O` [oleic acid], the stimulation of migration (SKOV3 cells [4]) is reported as “did not stimulate” and the stimulation of invasion (SKOV3 cells [9]) is reported as “did not stimulate”.
For Lysophosphatidylinositol [LPI], the stimulation of migration (SKOV3 cells [4]) was “did not stimulate” and the stimulation of invasion (SKOV3 cells [9]) was “did not stimulate”.
With cyclosporine A [CsA] the “order of effectiveness in reducing PLA2 activity of CM” value [6] was “MK571>glyburide>CsA” and the “effect on PLA2 activity of CM” value [6] was “dose-responsively reduced”.
In the case of lysophosphatidylcholine [LPC], the “stimulation of EOC cell migration” value (EOC cells [10]) is given as “does not stimulate”.
For methyl-β-cyclodextrin [MBC], the “effect on PLA2 activity detected in CM” value [6] was “Neither inhibitor had any significant effect”.
